From ChEMBL document CHEMBL1153330, “Biochemical basis for differences in metabolism-dependent genotoxicity by two diazinylpiperazine-based 5-HT2C receptor agonists” (Bioorg Med Chem Lett, 2009)

Columns and labels:
[1] = Metabolic stability in human liver microsomes in presence of CYP3A4 inhibitor ketoconazole; assay type: ADME, Microsome; settings: with ketoconazole (CYP3A4 inhibitor), concentration not stated
[2] = system: Salmonella typhimurium; assay: Toxic mutagenic effect in Salmonella Typhimurium TA100 assessed as increase in reverse mutants at 0.63 mg/plate segment in presence of liver S9 fraction and NADPH by reverse mutation assay relative to untreated control; assay type: toxicity, organism-based; settings: salmonella enterica subsp. enterica serovar typhimurium
[3] = Metabolic stability in human liver microsomes; assay type: ADME, Microsome
[4] = target: Cytochrome P450 3A4 (Homo sapiens, UniProt P08684); assay: Inhibition of CYP3A4 in human liver microsomes; assay type: ADME, Microsome
[5] = Metabolic stability in aroclor 1254-induced rat liver S9 fraction at 1 uM in presence of NADPH; assay type: ADME, subcellular
[6] = Metabolic stability in human liver microsomes in presence of CYP1A2 inhibitor furafylline; assay type: ADME, Microsome; settings: with furafylline (CYP1A2 inhibitor), concentration not stated
[7] = system: Salmonella typhimurium; assay: Toxic mutagenic effect in Salmonella Typhimurium TA1537 assessed as increase in reverse mutants at 0.63 mg/plate segment in presence of liver S9 fraction and NADPH by reverse mutation assay relative to untreated control; assay type: toxicity, organism-based; settings: salmonella enterica subsp. enterica serovar typhimurium
[8] = system: Salmonella typhimurium; assay: Toxic mutagenic effect in Salmonella Typhimurium TA100 assessed as increase in reverse mutants at 5 mg/plate segment after 72 hrs at 37 degC by reverse mutation assay relative to untreated control; assay type: toxicity, organism-based; settings: salmonella enterica subsp. enterica serovar typhimurium
[9] = system: Salmonella typhimurium; assay: Toxic mutagenic effect in Salmonella Typhimurium TA98 assessed as increase in reverse mutants at 5 mg/plate segment after 72 hrs at 37 degC in presence of aroclor 1254-induced rat liver S9 fraction by reverse mutation assay relative to untreated control; assay type: toxicity, organism-based; settings: salmonella enterica subsp. enterica serovar typhimurium, s9, 72 h
[10] = system: Salmonella typhimurium; assay: Toxic mutagenic effect in Salmonella Typhimurium TA1535 assessed as increase in reverse mutants at 5 mg/plate segment after 72 hrs at 37 degC by reverse mutation assay relative to untreated control; assay type: toxicity, organism-based; settings: salmonella enterica subsp. enterica serovar typhimurium
[11] = system: Salmonella typhimurium; assay: Toxic mutagenic effect in Salmonella Typhimurium TA1535 assessed as increase in reverse mutants at 5 mg/plate segment after 72 hrs at 37 degC in presence of aroclor 1254-induced rat liver S9 fraction by reverse mutation assay relative to untreated control; assay type: toxicity, organism-based; settings: salmonella enterica subsp. enterica serovar typhimurium, s9, 72 h
[12] = system: Salmonella typhimurium; assay: Toxic mutagenic effect in Salmonella Typhimurium TA1537 assessed as increase in reverse mutants at 5 mg/plate segment after 72 hrs at 37 degC in presence of aroclor 1254-induced rat liver S9 fraction by reverse mutation assay relative to untreated control; assay type: toxicity, organism-based; settings: salmonella enterica subsp. enterica serovar typhimurium, s9, 72 h
[13] = system: Salmonella typhimurium; assay: Toxic mutagenic effect in Salmonella Typhimurium TA1537 assessed as increase in reverse mutants at 5 mg/plate segment after 72 hrs at 37 degC by reverse mutation assay relative to untreated control; assay type: toxicity, organism-based; settings: salmonella enterica subsp. enterica serovar typhimurium
[14] = system: Salmonella typhimurium; assay: Toxic mutagenic effect in Salmonella Typhimurium TA98 assessed as increase in reverse mutants at 5 mg/plate segment after 72 hrs at 37 degC by reverse mutation assay relative to untreated control; assay type: toxicity, organism-based; settings: salmonella enterica subsp. enterica serovar typhimurium
[15] = target: T1, Cytochrome P450 1A2 (Homo sapiens, UniProt P05177); assay: Inhibition of CYP1A2 in human liver microsomes; assay type: ADME, Microsome
T1 sequence (P05177 whole entry): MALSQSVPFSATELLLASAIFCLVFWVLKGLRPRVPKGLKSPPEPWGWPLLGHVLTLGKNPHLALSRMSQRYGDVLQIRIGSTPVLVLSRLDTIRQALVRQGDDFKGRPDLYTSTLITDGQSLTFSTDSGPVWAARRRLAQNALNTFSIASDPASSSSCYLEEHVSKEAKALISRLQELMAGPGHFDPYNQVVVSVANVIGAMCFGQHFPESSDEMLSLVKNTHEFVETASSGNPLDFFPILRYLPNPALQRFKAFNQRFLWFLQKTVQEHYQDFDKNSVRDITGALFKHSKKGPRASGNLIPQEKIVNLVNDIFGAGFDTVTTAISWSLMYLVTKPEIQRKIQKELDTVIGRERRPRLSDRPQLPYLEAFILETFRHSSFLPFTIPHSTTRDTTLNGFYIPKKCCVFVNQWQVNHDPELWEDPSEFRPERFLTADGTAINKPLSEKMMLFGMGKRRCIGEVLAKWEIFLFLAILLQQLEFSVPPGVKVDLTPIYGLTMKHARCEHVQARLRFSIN

Chain of Cytochrome P450 3A4 (P08684 whole entry): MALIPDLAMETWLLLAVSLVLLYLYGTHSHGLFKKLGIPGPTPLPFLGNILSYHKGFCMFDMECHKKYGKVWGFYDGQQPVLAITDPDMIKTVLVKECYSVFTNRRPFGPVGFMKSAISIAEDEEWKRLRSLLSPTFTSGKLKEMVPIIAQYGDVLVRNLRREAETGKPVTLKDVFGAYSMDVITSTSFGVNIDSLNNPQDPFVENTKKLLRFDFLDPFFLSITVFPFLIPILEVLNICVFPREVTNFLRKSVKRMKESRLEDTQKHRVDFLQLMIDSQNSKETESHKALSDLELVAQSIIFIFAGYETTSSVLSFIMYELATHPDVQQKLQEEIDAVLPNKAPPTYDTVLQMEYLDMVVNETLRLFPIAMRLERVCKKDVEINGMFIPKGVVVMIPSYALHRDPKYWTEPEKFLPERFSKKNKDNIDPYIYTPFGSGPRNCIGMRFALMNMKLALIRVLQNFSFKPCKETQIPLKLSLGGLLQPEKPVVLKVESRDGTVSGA

Structure (SMILES): Clc1cccc(COc2cncc(N3CCNCC3)n2)c1
- half-life [1]: > 90 min
- fold change (FC) [2]: 3
- half-life [3]: 8 min
- IC50 [4]: > 50 µM
- half-life at 1 µM [5]: 4 min
- half-life [6]: 40 min
- fold change (FC) [7]: 3

Structure (SMILES): C[C@H](Cc1cccc(F)c1)Oc1nc(N2CCNC[C@H]2C)ncc1F
- fold change (FC) [8]: 1.34
- Activity [9]: Non-toxic
- half-life [1]: > 90 min
- Activity [10]: Non-toxic
- Activity [11]: Non-toxic
- Activity [12]: Non-toxic
- half-life [3]: 20 min
- Activity [13]: Non-toxic
- IC50 [4]: 4.9 µM
- half-life at 1 µM [5]: 13 min
- half-life [6]: 40 min
- Activity [14]: Non-toxic
- IC50 [15]: 400 nM
